Experimental data: patent US20080200404A1, “Novel Antimalarial 9A-Carbamoyl-Aminoalkyl and 9A-Thiocarbamoyl-Aminoalkyl Azalides” (priority 2005, published 2008)
In brackets after ≈: the same amount, converted by molar mass. Where two headings read alike, the source gives them in different places.

Columns and labels:
Format in all cases: cell-based
[1] = test system: Plasmodium falciparum TM91C235; experiment: In vitro antimalarial [3H]-hypoxanthine incorporation assay, TM91C235; conditions: P. falciparum TM91C235 (multiple drug resistant isolate), 72 hours exposure; for IC50: Plasmodium falciparum
Summary of the method: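 Multidrug-resistant P. falciparum TM91C235 was run at 0.4% parasitemia and 1% hematocrit in folate/PABA-free RPMI-1640 with ALBUMAX, at 37° C under 5% CO2/5% O2. Compound was tested in duplicate at 25,000, 2,500 and 25 ng/ml, preexposed 48 h, then [3H]-hypoxanthine was added (72 h total). Counts are expressed relative to untreated parasite controls.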

[2] = test system: Plasmodium falciparum clone CDC/Sierra Leone I (D-6); experiment: In vitro antimalarial [3H]-hypoxanthine incorporation serial dilution assay, D6; conditions: P. falciparum D6, 72 hours exposure; for IC50: Plasmodium falciparum, D6, 72 h
Summary of the method: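 Blood-stage cultures in RPMI-1640 with 6% A+ erythrocytes and human plasma or ALBUMAX, 37° C under 5% CO2/5% O2. Compounds in two-fold dilutions over 11 concentrations; [3H]-hypoxanthine incorporation after 72 h total incubation, CPM normalised to untreated parasite controls; IC50 by non-linear logistic fit.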

[3] = test system: Plasmodium falciparum clone CDC/Indochina III (W-2); experiment: In vitro antimalarial [3H]-hypoxanthine incorporation serial dilution assay, W2; conditions: P. falciparum W2, 72 hours exposure; for IC50: Plasmodium falciparum
Text: The in vitro screens for intrinsic antimalarial activity were based on modifications of the procedures described by Desjardins R E, Canfield C J, Haynes J D, Chulay J D. (Quantitative assessment of antimalarial activity in vitro by a semiautomated microdilution technique. Antimicrob Agents Chemother. 1979 December; 16(6):710-8.), Chulay J D, Haynes J D, Diggs C L. (Plasmodium falciparum: Assessment of in vitro growth by [3H]hypoxanthine incorporation. Exp. Parasitol. 1983 55:138-146.), and Milhous W K, Weatherly N F, Bowdre J H, Desjardins R E. (In vitro activities of and mechanisms of resistance to antifol antimalarial drugs. Antimicrob Agents Chemother. 1985 April; 27(4):525-30.). The system was limited to the assessment of the intrinsic activity against the erythrocytic asexual life cycle (blood schizontocides). Two Plasmodium falciparum clones from CDC/Indochina III (W-2) and CDC/Sierra Leone I (D-6) (Oduola A M, Weatherly N F, Bowdre J H, Desjardins R E. Plasmodium falciparum: cloning by single-erythrocyte micromanipulation and heterogeneity in vitro. Exp Parasitol. 1988 66(1):86-95.) were used for all assays. TM91C235, a multiple drug resistant isolate from Thailand, was used for the prescreening assay. W-2 is resistant to chloroquine, quinine, and pyrimethamine and susceptible to mefloquine. D-6 tends to be more resistant to mefloquine and susceptible to chloroquine, quinine, and pyrimethamine. All documents cited in this paragraph are incorporated by reference in their entirety.
All parasites were maintained in continuous long term cultures in RPMI-1640 medium supplemented with 6% washed human A positive (A+)(erythrocytes, 25 mM Hepes, […], and 10% heat inactivated A+human plasma or ALBUMAX® (lipid-rich bovine serum albumin; Invitrogen, Carlsbad, Calif.). All cultures and assays were conducted at 37° C. under an atmosphere of 5% CO2 and 5% O2, with a balance of N2.
After the preincubation, [^3H]-hypoxanthine was added to each well of the MTP. (The assay relies on the incorporation of radiolabeled hypoxanthine by the parasites, which indicates reproduction, and inhibition of isotope incorporation was attributed to activity of known or candidate antimalarial drugs). After 72 hr of total incubation time, the MTP were frozen to lyse the erythrocytes and parasites. The parasite DNA was recovered by harvesting the lysate onto glass-fiber filter plates using a Packard FilterMate™ Cell Harvester. The radioactivity was counted on a Packard TopCount™ microplate scintillation counter. The results were recorded as counts per minutes (CPM) per well at each drug concentration divided by the arithmetic mean of the CPM from the three untreated infection parasite control wells.
The serial dilution assay was conducted using the same assay conditions and stock solution of the compound used for the preliminary screen, described above. Both the D-6 and the W-2 clones were used. The compounds were diluted two-fold over 11 different concentration ranges with a starting concentration that was based on the preliminary screen. For each drug, the concentration response profile was determined and 50% inhibitory concentrations (IC50) were determined by using a non-linear, logistic dose response analysis program. […] For each assay, the IC50 for each clone was determined against the known antimalarials chloroquine and mefloquine. These control values established the compound's relative parasite susceptibility profile compared to known antimalarials. […]
The in vitro potency of the compounds has been compared with that of azithromycin to better gauge compounds suitable for further testing. As described above, parasites were exposed for 72 hours. Data from the in vitro potency tests of azithromycin against the three parasite strains have been averaged, and these numbers have been used for identification of “active” macrolide compounds.

SMILES	IC50 [1] [µg/mL]	IC50 ([2]; read-out: IC50 D6) [µg/mL]	IC50 [3] [µg/mL]	IC50 ([2]; compared with azithromycin, read-out: IC50 D6 (class symbol)) [µg/mL]	IC50 TM91C235 [1] [µg/mL]	IC50 D6 [2] [µg/mL]	IC50 W2 [3] [µg/mL]
CC[C@H]1OC(=O)[C@H](C)[C@@H](O[C@H]2C[C@@](C)(OC)[C@@H](O)[C@H](C)O2)[C@H](C)[C@@H](O[C@@H]2O[C@H](C)C[C@H](N(C)C)[C@H]2O)[C@](C)(O)C[C@@H](C)CN(CCCNC(=S)Nc2ccsc2C(=O)OC)[C@H](C)[C@@H](O)[C@]1(C)O.O=CO [Example 147]	0.343	0.469	0.389	–	–	–	–
CC[C@H]1OC(=O)[C@H](C)[C@@H](O[C@H]2C[C@@](C)(OC)[C@@H](O)[C@H](C)O2)[C@H](C)[C@@H](O[C@@H]2O[C@H](C)C[C@H](N(C)C)[C@H]2O)[C@](C)(O)C[C@@H](C)CN(CCCNC(=O)Nc2ccc(C(F)(F)F)cc2)[C@H](C)[C@@H](O)[C@]1(C)O.O=CO [Example 70]	0.0863	0.164	0.0765	–	–	–	–
CC[C@H]1OC(=O)[C@H](C)[C@@H](O[C@H]2C[C@@](C)(OC)[C@@H](O)[C@H](C)O2)[C@H](C)[C@@H](O[C@@H]2O[C@H](C)C[C@H](N(C)C)[C@H]2O)[C@](C)(O)C[C@@H](C)CN(CCCNC(=S)Nc2ccc(S(=O)(=O)N3CCCCC3)cc2)[C@H](C)[C@@H](O)[C@]1(C)O [Example 141]	0.0731 (≈ 0.068 µM)	0.188 (≈ 0.175 µM)	0.057 (≈ 0.0531 µM)	–	–	–	–
CCC(C)NC(=O)NCCCN1C[C@H](C)C[C@@](C)(O)[C@H](O[C@@H]2O[C@H](C)C[C@H](N(C)C)[C@H]2O)[C@@H](C)[C@H](O[C@H]2C[C@@](C)(OC)[C@@H](O)[C@H](C)O2)[C@@H](C)C(=O)O[C@H](CC)[C@@](C)(O)[C@H](O)[C@H]1C (stereo partly drawn) [Example 55]	1.05 (≈ 1.18 µM)	–	0.435 (≈ 0.489 µM)	> 0.797	–	–	–
CC[C@H]1OC(=O)[C@H](C)[C@@H](O[C@H]2C[C@@](C)(OC)[C@@H](O)[C@H](C)O2)[C@H](C)[C@@H](O[C@@H]2O[C@H](C)C[C@H](N(C)C)[C@H]2O)[C@](C)(O)C[C@@H](C)CN(CCCNC(=S)Nc2ccc(Cl)c(Cl)c2)[C@H](C)[C@@H](O)[C@]1(C)O [Example 132]	0.0839 (≈ 0.0842 µM)	0.295 (≈ 0.296 µM)	0.229 (≈ 0.229 µM)	–	–	–	–
CC[C@H]1OC(=O)[C@H](C)[C@@H](O[C@H]2C[C@@](C)(OC)[C@@H](O)[C@H](C)O2)[C@H](C)[C@@H](O[C@@H]2O[C@H](C)C[C@H](N(C)C)[C@H]2O)[C@](C)(O)C[C@@H](C)CN(CCCNC(=O)Nc2cccc(Cl)c2)[C@H](C)[C@@H](O)[C@]1(C)O.O=CO [Example 80]	0.117	0.451	0.186	–	–	–	–
CCC1OC(=O)C(C)C(OC2CC(C)(OC)C(O)C(C)O2)C(C)C(OC2OC(C)CC(N(C)C)C2O)C(C)(O)CC(C)CN(CCNC(=O)Nc2cccc3ccccc23)C(C)C(O)C1(C)O (stereo not drawn) [Example 2, 9-Deoxo-9-dihydro-9a-[N′-(1-naphtyl)carbamoyl-β-aminoethyl]-9a-aza-9a-homoerythromycin A]	–	–	–	–	0.0399 (≈ 0.0421 µM)	0.1344 (≈ 0.142 µM)	0.0744 (≈ 0.0785 µM)
CC[C@H]1OC(=O)[C@H](C)[C@@H](O[C@H]2C[C@@](C)(OC)[C@@H](O)[C@H](C)O2)[C@H](C)[C@@H](O[C@@H]2O[C@H](C)C[C@H](N(C)C)[C@H]2O)[C@](C)(O)C[C@@H](C)CN(CCCNC(=S)Nc2ccc(F)c(F)c2F)[C@H](C)[C@@H](O)[C@]1(C)O [Example 133]	0.0723 (≈ 0.0737 µM)	0.441 (≈ 0.449 µM)	0.162 (≈ 0.165 µM)	–	–	–	–
CC[C@H]1OC(=O)[C@H](C)[C@@H](O[C@H]2C[C@@](C)(OC)[C@@H](O)[C@H](C)O2)[C@H](C)[C@@H](O[C@@H]2O[C@H](C)C[C@H](N(C)C)[C@H]2O)[C@](C)(O)C[C@@H](C)CN(CCCNC(=S)NCCCSC)[C@H](C)[C@@H](O)[C@]1(C)O [Example 109]	0.332 (≈ 0.354 µM)	0.843 (≈ 0.898 µM)	0.19 (≈ 0.202 µM)	–	–	–	–
CC[C@H]1OC(=O)[C@H](C)[C@@H](O[C@H]2C[C@@](C)(OC)[C@@H](O)[C@H](C)O2)[C@H](C)[C@@H](O[C@@H]2O[C@H](C)C[C@H](N(C)C)[C@H]2O)[C@](C)(O)C[C@@H](C)CN(CCCNC(=S)Nc2cccc3nsnc23)[C@H](C)[C@@H](O)[C@]1(C)O.O=CO [Example 150]	0.105	0.181	0.091	–	–	–	–
CC[C@H]1OC(=O)[C@H](C)[C@@H](O[C@H]2C[C@@](C)(OC)[C@@H](O)[C@H](C)O2)[C@H](C)[C@@H](O[C@@H]2O[C@H](C)C[C@H](N(C)C)[C@H]2O)[C@](C)(O)C[C@@H](C)CN(CCCNC(=S)NCc2ccco2)[C@H](C)[C@@H](O)[C@]1(C)O.O=CO [Example 143]	0.234	0.322	0.439	–	–	–	–
CC[C@H]1OC(=O)[C@H](C)[C@@H](O[C@H]2C[C@@](C)(OC)[C@@H](O)[C@H](C)O2)[C@H](C)[C@@H](O[C@@H]2O[C@H](C)C[C@H](N(C)C)[C@H]2O)[C@](C)(O)C[C@@H](C)CN(CCCNC(=S)NC2CC3C=CC2C3)[C@H](C)[C@@H](O)[C@]1(C)O.O=CO (stereo partly drawn) [Example 151]	0.181	0.299	0.171	–	–	–	–
CC[C@H]1OC(=O)[C@H](C)[C@@H](O[C@H]2C[C@@](C)(OC)[C@@H](O)[C@H](C)O2)[C@H](C)[C@@H](O[C@@H]2O[C@H](C)C[C@H](N(C)C)[C@H]2O)[C@](C)(O)C[C@@H](C)CN(CCCNC(=S)Nc2ccc(Cl)c(C(F)(F)F)c2)[C@H](C)[C@@H](O)[C@]1(C)O [Example 124]	0.0122 (≈ 0.0118 µM)	0.0559 (≈ 0.0543 µM)	0.0575 (≈ 0.0558 µM)	–	–	–	–
CC[C@H]1OC(=O)[C@H](C)[C@@H](O[C@H]2C[C@@](C)(OC)[C@@H](O)[C@H](C)O2)[C@H](C)[C@@H](O[C@@H]2O[C@H](C)C[C@H](N(C)C)[C@H]2O)[C@](C)(O)C[C@@H](C)CN(CCCNC(=S)Nc2ccc(C#N)cc2)[C@H](C)[C@@H](O)[C@]1(C)O [Example 98]	0.0745 (≈ 0.0782 µM)	0.126 (≈ 0.132 µM)	0.0476 (≈ 0.05 µM)	–	–	–	–
CC[C@H]1OC(=O)[C@H](C)[C@@H](O[C@H]2C[C@@](C)(OC)[C@@H](O)[C@H](C)O2)[C@H](C)[C@@H](O[C@@H]2O[C@H](C)C[C@H](N(C)C)[C@H]2O)[C@](C)(O)C[C@@H](C)CN(CCCNC(=S)NC(=O)c2ccccc2)[C@H](C)[C@@H](O)[C@]1(C)O [Example 100]	0.275 (≈ 0.288 µM)	0.284 (≈ 0.298 µM)	0.102 (≈ 0.107 µM)	–	–	–	–
CC[C@H]1OC(=O)[C@H](C)[C@@H](O[C@H]2C[C@@](C)(OC)[C@@H](O)[C@H](C)O2)[C@H](C)[C@@H](O[C@@H]2O[C@H](C)C[C@H](N(C)C)[C@H]2O)[C@](C)(O)C[C@@H](C)CN(CCCNC(=S)NCC(C)C)[C@H](C)[C@@H](O)[C@]1(C)O.O=CO [Example 149]	0.414	0.657	0.472	–	–	–	–
